Source: PMC5983544, “Muscarinic M5 receptors modulate ethanol seeking in rats” (Neuropsychopharmacology, 2018)

Tests used:
[1] = tested on: ethanol-preferring (iP) rats; test: Ethanol self-administration after bilateral microinjection into dorsolateral (DL) striatum; assay type: in vivo, rat; details: intra-DL striatum
Description: (§1) Male iP rats (n = 14) were trained to self-administer 10% (v/v) ethanol via lever presses under FR3 operant conditions for approximately 12 weeks, in the presence of a 1-s light conditioned stimulus (CS+) occurring when the ethanol solution was delivered and an olfactory cue (S+ cue; one drop of vanilla essence, placed directly below the ethanol-paired (active) lever), as previously described, followed by surgery and testing. […] Rats were then given 7 days of ethanol self-administration before receiving the alternate treatment in a counterbalanced manner. For full details refer to Supplementary material.
(§2) Microinjections were performed as previously described; for full details see Supplementary material.

[2] = tested on: ethanol-preferring (iP) rats; test: Ethanol self-administration after bilateral microinjection into dorsomedial (DM) striatum; assay type: in vivo, rat; details: intra-DM striatum
Description: as §1, §2
There was a main effect of lever (F(1, 15) = 59.4, P < 0.0001) but no effect of treatment (F(1, 15) = 0.22, P = 0.65) (Fig. 5b).

Row | SMILES | responding for ethanol vs vehicle ([1]; 165 pmol/hemisphere, P = 0.82) | responding for ethanol vs vehicle ([2]; 165 pmol/hemisphere, P = 0.99) | ethanol responding vs vehicle ([1]; 5.53 nmol/side, P = 0.0003) | responding for water vs vehicle ([1]; 5.53 nmol/side, P = 0.96) | ethanol responding vs vehicle ([2]; 5.53 nmol/hemisphere)
1 | CCN(Cc1ccccc1C(F)(F)F)C(=O)C1CCN(S(=O)(=O)c2ccc3[nH]ncc3c2)CC1 [ML380, 1-((1H-indazol-5-yl)sulfoneyl)-N-ethyl-N-(2-(trifluoromethyl)benzyl)piperidine-4-carboxamide] | no effect | no effect |  |  | 
2 | c1cnc2cc3c(cc2n1)[C@@H]1CNC[C@H]3C1 [varenicline] |  |  | significantly reduced ethanol responding | no difference | did not affect ethanol responding
